We go through 89 compounds from a melting point compilation (Tetko et al.; mined from patent text by program, amines drawn as free bases though some values may be those of a salt).

One may read the melting point as the temperature, or range, at which the solid turns liquid.

Structures are written as SMILES.

In the case of `O=C1c2ccccc2C(OCCc2ccccn2)N1c1ccc2ccc(Cl)nc2n1` (centres undefined), the melting point was determined as 142 °C.

For the compound `[N-]=[N+]=NCCOc1ccc(C(=C(c2ccc(F)cc2)C(F)(F)F)c2ccccc2)cc1`, the melting point was 100 to 110 °C.

`O=CC=Cc1cnc(-c2ccccc2)s1`: the melting point came to 104 °C.

On to `CCCCCCCCCCCCCCCCC[C@H](O)C[C@@H]1OC(=O)[C@H]1CC`, for which the melting point is 80 to 82 °C.

`Cn1cc(C2=C(c3c4n(c5ccccc35)CCC(CO)C4)C(=O)NC2=O)c2ccccc21` (centres undefined) returned a melting point of 262 to 263 °C.

`O=C(c1cccs1)C1C(=O)N(C(=O)NS(=O)(=O)Cl)c2ccc(Cl)cc21` (centres undefined) displayed a melting point of 166 to 169 °C.

Consider `Nc1ccc(C(CC2CCCC2)C(=O)Nc2nccs2)cc1` (centres undefined), for which the melting point is 102 to 107 °C.

The compound `CCOC(=O)c1cn(NC=O)c2nc(C)ccc2c1=O` came in with a melting point of 214 °C.

`Fc1ccc(Nc2nc(N/N=C/c3cccc4ccccc34)nc(N3CCOCC3)n2)cc1` displayed a melting point of 220 °C.

For `O=C(O)C(Cc1ccc2c(c1)OCO2)Cc1ccc2c(c1)OCO2`, the melting point is 191 to 193 °C.

The compound `CCOP(=O)(OCC)c1ccc(NC(=O)CCc2oc(-c3ccccc3)nc2-c2ccc(Cl)cc2)cc1` displayed a melting point of 139 to 140 °C.

Turning to `O=C(O)c1ccc(CSc2nnc(-c3ccc4c(c3)CCO4)o2)cc1`, the melting point fell in the range of 203 to 205 °C.

Regarding `Cc1c(SCCCSCCn2c([N+](=O)[O-])cnc2C)ccnc1CNc1cnc2ccccc2c1`, the melting point is 133 to 135 °C.

The compound `Cc1oc(-c2ccccc2)nc1CCOc1ccc(C=O)c2sccc12` came in with a melting point of 154 °C.

As to `COC(=O)c1ccc2oc(CCc3cc4cc(C(=O)OC)ccc4o3)cc2c1`, the melting point is 165 to 167 °C.

With `NS(=O)(=O)c1ccc(CCN2CC=C(c3c[nH]c(-c4ccc(F)cc4)c3-c3ccncc3)CC2)cc1`, the melting point fell in the range of 220 to 221 °C.

The compound `Cc1c(C#N)c(-c2ccc(C#N)cc2)c(C)n1Cc1cnc(Cl)c(C(O)C(F)(F)F)c1` (centres undefined) gave a melting point of 200 to 201 °C.

In turn, `COc1ccc2c(Cc3c(Cl)cncc3Cl)nncc2c1C#CCCCc1ccccc1` had a melting point of 130 to 132 °C.

Regarding `CCOC(=O)c1c(SC)n(-c2ccc(F)cc2)c2cc(F)c(F)cc2c1=O`, the melting point was 167 °C.

`O=C(NC1CCCC1)c1cccc(-c2ccnc3c(C(=O)c4cccs4)cnn23)c1` had a melting point of 207 to 209 °C.

Regarding `CC(=O)Nc1cc(=O)cc2n1CCCCC2`, the melting point is more than 230 °C.

For the compound `CCOC1(OCC)CCC(C#N)(CC#N)CC1`, the melting point fell in the range of 74 to 75 °C.

`CCCc1nn(-c2ccc(C(F)(F)F)cn2)cc1CCCOc1cccc(CCC(=O)O)c1`: the melting point lay in the range of 97 to 98 °C.

`O=CC=C(c1ccccc1F)c1ccccc1F`: the melting point lay within 75 to 77 °C.

Consider `CCOC(=O)C(C#N)C(=O)c1ccc[nH]1` (centres undefined), for which the melting point fell in the range of 138 to 139 °C.

In turn, `CO/N=C(\C)c1ccc(Nc2c3ccccc3nc3occc23)cc1` registered a melting point of 167 to 168 °C.

Take `ClC(Cl)=Cc1ccc(OCc2ccccc2)cc1`: the melting point fell in the range of 74.5 to 76.5 °C.

Take `Cc1oc(-c2ccccc2)nc1COc1ccccc1CCCC1SC(=O)NC1=O` (centres undefined): the melting point lay within 173 to 174 °C.

Regarding `COc1ccc(-n2nc(OC(C)C)cc2-c2ccc(OCCNC(N)=O)cc2)cc1`, the melting point was in the range of 139 to 140 °C.

Compound `Cc1cc(C)c(C#N)c(-c2ccc(F)c(C)c2)c1` gave a melting point of 98 to 100 °C.

In turn, `O=c1cc(-c2cccc(F)c2)oc2ccc(OCCCCCCN3CCC(O)CC3)cc12` yielded a melting point of 136 to 137 °C.

Compound `CCn1nc2ccc(Cl)nn2c1=O` gave a melting point of 150 to 152 °C.

Compound `COc1ccc2ccc(OC)c3c2c1CCC3CCNC(=O)C1CC1` (centres undefined) returned a melting point of 120 °C.

Take `CN1C2CCCC1CN(c1ccc(C#Cc3ccc(N)cc3)cc1)C2`: the melting point came out at 191 °C.

For `Cc1oc2cccc(OCC#N)c2c1C`, the melting point lay within 50 to 52 °C.

Consider `COc1ccc2c(c1)C(=O)CC1(CCN(c3cc(=O)n(C)c(=O)n3C)CC1)O2`, for which the melting point is 202 to 203 °C.

The compound `CCc1nnc(Cc2c(Cl)cncc2Cl)c2ccc(OC)cc12` had a melting point of 136 to 138 °C.

In turn, `O=C(O)Cc1ccc(CN2CCN(c3ccccc3C(=O)O)CC2)cc1` gave a melting point of 179 to 181 °C.

`O=C1Nc2cccc(-c3ccc(O)cc3)c2/C1=C/c1ccc[nH]1` registered a melting point of 271 to 273 °C.

In the case of `O=C(O)c1c[nH]c2cn[nH]c2c1=O`, the melting point is more than 330 °C.

Compound `Cc1nc(NN)nnc1-c1ccccc1` gave a melting point of 136 to 138 °C.

Regarding `O=C(Nc1cccnc1)N1CCN(c2nccc(-c3ccc(F)cc3)n2)CC1`, the melting point was 233 to 234 °C.

Turning to `Cc1c(SCCCCSCCn2c([N+](=O)[O-])cnc2C)ccnc1CSc1nc2ccccc2[nH]1`, the melting point was 160 to 162 °C.

Consider `Fc1ccc(OCc2ccnc3c(Cl)cccc23)cc1`, for which the melting point lay within 144 to 145 °C.

`Clc1ncc(Br)n2nc(SCc3ccccc3)nc12` yielded a melting point of 109 to 110 °C.

On to `CCC[C@H]1CCC[C@H](N2C(=O)c3ccccc3C2=O)C(=O)N1`, for which the melting point was 146 to 151 °C.

The compound `CCOC(=O)Nn1cccc1` yielded a melting point of 60 to 61 °C.

The compound `CCc1nc(Cc2ccc(NC(=O)/C=C/c3cnn(C)c3-c3ccc(F)cc3)cc2)cs1` returned a melting point of 178 to 179 °C.

As to `COc1ccc(C(O)CCN2CC=C(c3ccc(Cl)cc3)CC2)c(OC)c1` (centres undefined), the melting point lay within 112 to 114 °C.

As for `CCCOc1ccc(F)cc1C(N)=O`, the melting point was in the range of 114 to 116 °C.

In turn, `CCCc1c(C(C)C)cc(C(C)C)c(C(C)O)c1-c1ccc(F)cc1` (single isomer, unassigned; (+)) yielded a melting point of 114 to 116 °C.

Take `CC(=O)OC1CSC(Oc2cncc(-c3ccc(N4CCCCC4)cc3)c2)C(OC(C)=O)C1OC(C)=O` (centres undefined): the melting point came to 196 °C.

Turning to `CC=CC(=O)Oc1ccc(Nc2ccccc2)cc1`, the melting point is 73 to 76 °C.

`CC1CCN(c2c(F)c(N)c3c(=O)c(C(=O)O)cn(C4CC4)c3c2F)CC(C)(C)C1` (centres undefined) came in with a melting point of 148 to 150 °C.

Take `Cn1c(=O)oc2cc(N3C[C@H](C(N)=O)OC3=O)ccc21`: the melting point is more than 260 °C.

For `CC(C)(C)C(=O)c1c[nH]c2ncc(-c3ccccn3)nc12`, the melting point lay in the range of 276 to 278 °C.

`CC(=O)Oc1cccc(-c2cc(-c3ccncc3)c(C#N)c(=O)[nH]2)c1` gave a melting point of 284 to 286 °C.

Compound `Cc1ccc(-c2cccc(C(=O)O)n2)cc1C(=O)NCC12CC3CC(CC(C3)C1)C2` registered a melting point of 227 °C.

In turn, `Cc1ccc(N2C(=O)C(O)=C(C(=O)c3ccc(N4CCOCC4)cc3)C2c2ccc(OC(F)(F)F)cc2)nn1` (centres undefined) had a melting point of 234 °C.

The compound `CCOC(=O)C1=C(C)NC2=C(C(=O)CCC2)C1c1nccn1C` (centres undefined) registered a melting point of 271 to 272 °C.

Consider `COC(=O)NNc1ccccc1OCCSC`, for which the melting point is 92 to 94 °C.

The compound `CC(C)Cn1c(=O)n(C)c(=O)c2c(Sc3ccc([N+](=O)[O-])cn3)c(Cc3cccc4ccccc34)sc21` came in with a melting point of 200 to 201 °C.

On to `N#Cc1c(O)cccc1[N+](=O)[O-]`, for which the melting point was 200 °C.

For the compound `CCN(CC)CC(=O)Nc1ccc(-c2n[nH]c3c2Cc2ccccc2-3)cc1`, the melting point lay in the range of 99 to 100 °C.

`COc1cccc(OC)c1C(=O)P(=O)(CC(C)C)C(=O)c1c(C)cc(C)cc1C` (centres undefined) displayed a melting point of 105 to 106 °C.

`CCCCCCCCC=CCCCCCCCCN1CC(C(=O)OC)N(S(=O)(=O)c2ccc(-c3ccc(Br)cc3)cc2)CC1=O` (centres undefined) yielded a melting point of 108 °C.

Compound `Nc1nc2c(OCCOc3nccnc3N3CCNCC3)cccc2o1` came in with a melting point of 138 to 140 °C.

In turn, `COC(=O)c1ccc2[nH]c3cnc(C(=O)OC)c(C)c3c2c1` registered a melting point of 199 to 204 °C.

For the compound `CN(C)Cc1c(-c2ccc(OC(F)F)c(OC3CC3)c2)[nH]c2cn[nH]c(=O)c12`, the melting point lay within 154 to 157 °C.

In the case of `CC(C)c1ccc(C(=O)C(=O)c2ccccc2)c(C(C)C)c1OS(N)(=O)=O`, the melting point is 106 to 109 °C.

For `Cc1ccc(S(=O)(=O)N2CCN(c3ccc(O)cc3)CC2)cc1`, the melting point is 193 °C.

For `O=C(NCc1ccc(Cl)cc1)n1cc(Br)cnc1=O`, the melting point is 158 to 160 °C.

`Cc1ccc(S(=O)(=O)Oc2cccc3c2CCCN3)cc1` returned a melting point of 112 to 113 °C.

`CC(Oc1cc(-c2ccccc2)nc2ccccc12)C(=O)N1CCSCC1` (centres undefined): the melting point amounted to 198 °C.

Turning to `CCCCCCC(=O)Nc1ncnc(NC2CC2)n1`, the melting point lay within 195 to 197 °C.

In turn, `Cc1c(/C=N/OCc2ccc(C(=O)O)c(Br)c2)c2ccccc2n1C` showed a melting point of 165 to 166 °C.

`N#Cc1cc2ccccc2cc1O` returned a melting point of 188 to 189 °C.

Regarding `COc1ccnc(Cl)c1C#N`, the melting point was in the range of 168 to 171 °C.

`CCCCCc1ccc(OCC23CCC(CCC)(CC2)CC3)c(C#N)c1C#N` registered a melting point of 133 °C.

Consider `CC(=O)n1ncc2c(OCc3ccccc3)cccc21`, for which the melting point was 97 °C.

The compound `O=C(NC1CCCn2c1nc(-c1ccncc1)cc2=O)Oc1ccccc1` (racemic) returned a melting point of 193 to 195 °C.

`CCOCCCn1cnc(-c2ccc(F)cc2)c1-c1ccncc1`: the melting point lay in the range of 85 to 86 °C.

`Nc1cccc(C(=O)N(CCN2CCC(C(=O)c3ccc(F)cc3)CC2)c2ccc(F)cc2)c1` registered a melting point of 159 to 162 °C.

For the compound `O=c1c2cc(F)ccc2[nH]c(=S)n1-c1ccccc1Cl`, the melting point lay within 295 to 297 °C.

Turning to `Cc1ccsc1C(=O)C(=CN(C)C)c1ccccc1[N+](=O)[O-]`, the melting point fell in the range of 101 to 103 °C.

On to `O=C(NC1CCCCC1)c1c(O)c2cc(F)ccc2n(Cc2ccccc2)c1=O`, for which the melting point lay within 130 to 134 °C.

`CCOC(=O)C(C)Oc1ccc(-c2ccc(CCNC(=O)c3cc(Cl)ccc3OC)cc2)cc1` (centres undefined) yielded a melting point of less than 20 °C.

As to `COCc1cc(-n2nc(C(F)(F)F)cc2-c2ccc(-c3ccco3)cc2)ccc1S(C)(=O)=O`, the melting point lay in the range of 142 to 143 °C.

Turning to `CC1(C)Oc2ccc(C#N)cc2C(c2cccn(Cc3ccccc3)c2=O)C1O` (centres undefined), the melting point was 120 to 122 °C.
